According to patent US12029791B2, “Therapeutic conjugates” (Totus Medicines Inc., priority 2019, dated 2024):

test system: PI3-kinase; assay: NanoBRET screening of ARCS for covalent binding in transfected HEK293 cells; parameters: species or system Human; conditions: HEK293 cells transfected with NanoLuc-target fusion, overnight incubation, washout
Protocol: Human embryonic kidney 293-H (HEK 293, Gibco 293-H, #11631017) cell lines are maintained in Dulbecco's Modified Eagle Medium, high glucose, pyruvate (DMEM, Gibco, #11995065) supplemented with 10% fetal bovine serum (FBS, Gibco, #10082147) and 1× penicillin-streptomycin (100× solution, Gibco, #15140148) at 37° C. and 5% CO2 in a water-saturated incubator. Cell are trypsinized using 0.05% or 0.25% Trypsin-EDTA solution (Trypsin-EDTA, phenol red, Gibco, #25200056 (0.25%) or #25300054). Opti-MEM media supplemented with 10% fetal bovine serum (Opti-MEM I reduced serum media, no phenol red, Gibco, #11058021) is used for culturing cells overnight for NanoBRET readout experiments.
HEK293 cells are cultivated appropriately prior to assay. The medium from cell flask is removed via aspiration, washed 1× with PBS followed by aspiration, trypsinized, and cells are allowed to dissociate from the flask. Trypsin is neutralized using growth medium and cells are pelleted via centrifugation at 200×g for 5 minutes. The medium is aspirated and the cells are resuspended into a single cell suspension using Opti-MEM I supplemented with 10% FBS. The cell density is adjusted to 2×10^5/mL in Opti-MEM I supplemented with 10% FBS in a sterile, conical tube. The cells are transfected and aliquoted directly in a 96-well plate for the NanoBRET assay the next day, and therefore, the cells are cultured overnight in Opti-MEM. The cells are also transfected in bulk and dispensed into a 96-well plate to allow cells to adhere to the plate overnight, thereby enabling washout studies.
The lipid:DNA complexes are prepared as follows:
A 10 μg/mL solution of DNA is prepared in Opti-MEM without serum. This solution contains the following ratios of carrier DNA and DNA encoding NanoLuc fused to the biological target. Serial dilution steps may be warranted to accurately dilute the NanoLuc fusion DNA. Added, in order, the following reagents to a sterile polystyrene test tube: 1 mL of Opti-MEM without phenol red; 9.0 μg/mL of carrier DNA; 1.0 μg/mL of NanoLuc fusion DNA (for some targets, the amount is less). The reagents are mixed thoroughly.
30 μL of FuGENE HD is added into each mL of DNA mixture to form lipid:DNA complex. […] It is mixed by pipetting up and down 5-10 times and incubated at room temperature for 20 minutes to allow complexes to form. 1 part (e.g. 1 mL) of lipid:DNA complex is mixed with 20 parts (e.g. 20 mL) of HEK293 cells in suspension at 2×10^5/mL and mixed gently by pipetting up and down 5 times in a sterile, conical tube. Larger or smaller bulk transfections are scaled accordingly, using this ratio. 100 μL cells+lipid:DNA complex is dispensed into a sterile, tissue-culture treated 96-well plate (20,000 cells/well), and incubated at least 16 hours to allow expression. The cells are incubated in a 37° C.+5% CO2 incubator for >16 hrs. A serially diluted inhibitor or test compound is prepared at 100× final concentration in 100% DMSO. The serially diluted inhibitor stock is prepared in PCR plates. 1 μL per well of 100× serially diluted inhibitor/test compound is added to the cells in 96-well plates that have been transiently transfected overnight and mixed by tapping the plate by hand. The plate is incubated at 37° C.+5% CO2 incubator overnight. A 1× solution of substrate mix (500× stock) and appropriate concentration of tracer is prepared in Opti-Mem. The cells are washed by setting a plate washer to the 96 well plate 5× in PBS pH 7.4 by adding 200 μL PBS each time. The cells are incubated at 37° C. for 2 hours. 100 μL of the 1× Substrate-Tracer solution is added and the 96 well plate is gently tapped to mix. The plate on plate reader is read every hour for the next 6 hours. The binding assays of some ARCS are shown below. Compound 1-XXXII formed a covalent bond with PI3-kinase from about 5% to 20%. ARCS selected from the group consisting of Compounds 1-101, 1-102, 1-113, 1-114, 1-119, 1-120, 1-125 and 1-126 formed a covalent bond with PI3-kinase from about 80% to 100%. […]

Row | Structure (SMILES) | Binding (Percent inhibition)
1 | COC(=O)Nc1cc(C(F)(F)F)c(-c2nc(N3CCOCC3)c3cc(CN4CCN(C(=O)CNC(=O)C=C(C)C)CC4)cn3n2)cn1 [Compound 1-114] | +++ (>80%)
2 | COC(=O)Nc1cc(C(F)(F)F)c(-c2nc(N3CCOCC3)c3cc(CN4CCN(C(=O)CNC(=O)/C=C/CN(C)C)CC4)cn3n2)cn1 [Compound 1-120] | +++ (>80%)
3 | CC#CC(=O)NCC(=O)N1CCN(Cc2cc3c(N4CCOCC4)nc(-c4cnc(NC(=O)OC)cc4C(F)(F)F)nn3c2)CC1 [Compound 1-126] | +++ (>80%)
4 | C=CC(=O)NCC(=O)N1CCN(Cc2cc3c(N4CCOCC4)nc(-c4cnc(NC(=O)OC)cc4C(F)(F)F)nn3c2)CC1 [Compound 1-102] | +++ (>80%)
5 | COC(=O)Nc1cc(C(F)(F)F)c(-c2nc(N3CCOCC3)c3cc(CN4CCNCC4)cn3n2)cn1 [Compound 1-XXXII] | + (<20%)
6 | COC(=O)Nc1cc(C(F)(F)F)c(-c2nc(N3CCOCC3)c3cc(CN4CCN(C(=O)CCC(=O)C=C(C)C)CC4)cn3n2)cn1 [Compound 1-113] | +++ (>80%)
7 | COC(=O)Nc1cc(C(F)(F)F)c(-c2nc(N3CCOCC3)c3cc(CN4CCN(C(=O)CCC(=O)/C=C/CN(C)C)CC4)cn3n2)cn1 [Compound 1-119] | +++ (>80%)
8 | C=CC(=O)Nc1ccc(CCNCc2cc3c(N4CCOCC4)nc(-c4cnc(NC(=O)OC)cc4C(F)(F)F)nn3c2)cc1 [Compound 1-172] | ++ (50-80%)
9 | CC#CC(=O)CCC(=O)N1CCN(Cc2cc3c(N4CCOCC4)nc(-c4cnc(NC(=O)OC)cc4C(F)(F)F)nn3c2)CC1 [Compound 1-125] | +++ (>80%)
10 | C=CC(=O)Nc1ccc(C(=O)N2CCN(Cc3cc4c(N5CCOCC5)nc(-c5cnc(NC(=O)OC)cc5C(F)(F)F)nn4c3)CC2)cc1 [Compound 1-171] | ++ (50-80%)
11 | C=CC(=O)CCC(=O)N1CCN(Cc2cc3c(N4CCOCC4)nc(-c4cnc(NC(=O)OC)cc4C(F)(F)F)nn3c2)CC1 [Compound 1-101] | +++ (>80%)
